Measured values taken from article PMC7875911 (Frontiers in Pharmacology, 2021).
“Also recorded” adds a separate entry of the source.

Assays:
hCav2.2 = molecular target: T1, hCav2.2 (Homo sapiens, UniProt Q00975); assay: cell-based
T1 construct: expressed in transfected cells; host or cells: HEK293 (HEK293T), transient calcium phosphate co-transfection
Method: Human embryonic kidney (HEK293T) cells containing the SV40 Large T-antigen were cultured at 37°C, 5% CO2 in Dulbecco’s Modified Eagle’s Medium (DMEM, Invitrogen Life Technologies, Australia), supplemented with 10% fetal bovine serum (FBS, Bovigen, Australia), 1% GlutaMAX and penicillin-streptomycin (Invitrogen, Australia). HEK293 cells were then transiently co-transfected with the different voltage-gated calcium channel isoforms and green fluorescent protein (GFP) for visualization, using the calcium phosphate method. cDNAs encoding mCav1.2 (a gift from Dr. D. Lipscombe; Addgene plasmid #26572) ([Helton et al., 2005]), rCav1.3 (a gift from Dr. D. Lipscombe; Addgene plasmid # 49,333) ([Xu and Lipscombe, 2001]), hCav2.1 (a gift from Dr. J. Striessnig), rCav2.2 (a gift from Dr. D. Lipscombe), hCav2.2 (a gift from Dr. D. Yue), hCav2.3 (purchased from GenScript United States Inc.) were co-transfected with β3, α2δ1 and GFP. After transfection, cells were plated on 12 mm cover glass and transferred to a 30°C incubator for 1–3 days.
Depolarization-activated Ca^2+ currents (ICa) in transfected HEK293 cells were recorded in the whole-cell patch clamp configuration. Data were recorded using a MultiClamp 700B amplifier, digitized with a DigiData1440 and controlled using Clampex10.7 software (Molecular Devices, United States). Currents were sampled at 100 kHz and filtered to 10 kHz, with leak and capacitive currents subtracted using a −P/4 protocol. […] Intracellular recording solution contained as follows (mM): 140 KGluconate, 5 NaCl, 2 MgCl2, 5 EGTA and 10 HEPES, pH 7.2 with KOH. Cells were continuously perfused with extracellular solution at a rate of ∼1.2 ml/min. […]
(§1) Statistical significance (p < 0.05) was determined using unpaired Student’s t-test or 1-way ANOVA followed by a Tukey multiple comparison. […]
(§2) Numerous HVA Cav channel isoforms are present in rat DRG neurons. […] We transiently co-transfected the individual Cav channel α-subunits of interest together with β3 and α2δ1 subunits in HEK293 cells and measured whole-cell I Ca currents by patch clamp. […]

[1] = tested on: TTXs-I Na in small-diameter IB4 ^− DRG neurons; conditions: cited from earlier work
hCav2.3 = assay: Whole-cell patch clamp, recombinant hCav2.3 in HEK293; type: cell-based, human
Method: Human embryonic kidney (HEK293T) cells containing the SV40 Large T-antigen were cultured at 37°C, 5% CO2 in Dulbecco’s Modified Eagle’s Medium (DMEM, Invitrogen Life Technologies, Australia), supplemented with 10% fetal bovine serum (FBS, Bovigen, Australia), 1% GlutaMAX and penicillin-streptomycin (Invitrogen, Australia). […]
Depolarization-activated Ca^2+ currents (ICa) in transfected HEK293 cells were recorded in the whole-cell patch clamp configuration. Data were recorded using a MultiClamp 700B amplifier, digitized with a DigiData1440 and controlled using Clampex10.7 software (Molecular Devices, United States). […]
as §1, §2

[2] = tested on: TTXs-I Na in small-diameter IB4 ^± DRG neurons
Method: (§3) Spinal level L3–L5 DRG were removed and placed in ice-cold HEPES-buffered saline (HBS) composed of (in mM): 154 NaCl, 2.5 KCl, 1.8 CaCl2, 1.5 MgCl2, 10 HEPES, and 10 glucose (pH 7.4, 330 ± 5 mOsm). Iridectomy scissors were utilized to cut up ganglia before incubation at 37°C for 15 min in oxygenated HBS containing 5 mg ml^−1 collagenase type 2 (Worthington Biochemical Corp, Lakewood, NJ, United States) followed by 25 min in oxygenated HBS containing 1 mg ml^−1 papain (Worthington Biochemical Corp). […] After enzyme treatment, ganglia were placed in 3 ml of HBS following two room temperature HBS washes. Ganglia were then triturated through fire-polished Pasteur pipettes with decreasing bores to extract cells. Finally, the cells mixed in HBS were plated onto surface modified culture dishes (Corning Primaria™ easy grip). […] DRG cells were pre-treated with 1 μg ml^−1 Alexa Fluor 488-conjugated Bandeiraea simplicifolia IB4 (Invitrogen) for 5 min at room temperature and washed with HBS for 5 min before fluorescence was examined on the inverted microscope (Olympus, IX50) used for patch clamp recordings.
(§4) Cell size was determined from an eyepiece graticule. Whole-cell electrophysiology was conducted at room temperature (22–24°C) in culture dishes perfused with room temperature HBS. The intracellular pipette solution contained (mM): 120 CsCl, 10 HEPES, 10 EGTA, 2 CaCl2, 5 MgATP, 5 Na2GTP, 5 NaCl; pH 7.3 (CsOH); 285 ± 5 mos mol l^−1.
(§5) An EPC-9 patch-clamp amplifier and corresponding PULSE software from HEKA Electronik (Lambrecht/Pfalz, Germany) were used to make recordings. Currents were sampled at 50 kHz and recorded on a hard disk. Borosilicate glass from AM Systems, Everett, WA, United States were used for patch pipettes. The input resistance of the pipettes ranged from 2 to 4 MΩ. […] A built-in procedure of the HEKA amplifier compensated for the capacitive transient currents. A −P/6 protocol was utilized to subtract leak current online. I Ca was generated with the recording protocol which included a depolarization from a holding potential of −80 mV to 0 mV for 10 ms every 30 s. I Na was generated through a recording protocol which included a step depolarization from a holding potential of −80 mV to 0 mV for 10 ms at a frequency of 0.1 Hz. Cells were perfused with the test compound via a pressure driven perfusion system (AutoMate Scientific, United States).
(§6) All data analysis and graphs were generated in OriginPro (Origin Lab Corporation, United States). […] Activation and SSI curves were fit by the modified Boltzmann equation: I or G=1/(1+exp(Vm−V0.5/ka)) Where I is the current or G is the conductance, Vm is the pre-pulse potential, V 0.5 is the half-maximal activation potential and ka is the slope factor.
(§7) Statistical significance (p < 0.05) was determined using unpaired Student’s t-test or 1-way ANOVA followed by a Tukey multiple comparison. All data is presented as mean ± SEM (n), where n is individual cells.

[3] = tested on: TTXs-I Na in small-diameter IB4 ^− DRG neurons
Method: as §3, §4, §5, §6, §7

T1 sequence (P54289 25-956): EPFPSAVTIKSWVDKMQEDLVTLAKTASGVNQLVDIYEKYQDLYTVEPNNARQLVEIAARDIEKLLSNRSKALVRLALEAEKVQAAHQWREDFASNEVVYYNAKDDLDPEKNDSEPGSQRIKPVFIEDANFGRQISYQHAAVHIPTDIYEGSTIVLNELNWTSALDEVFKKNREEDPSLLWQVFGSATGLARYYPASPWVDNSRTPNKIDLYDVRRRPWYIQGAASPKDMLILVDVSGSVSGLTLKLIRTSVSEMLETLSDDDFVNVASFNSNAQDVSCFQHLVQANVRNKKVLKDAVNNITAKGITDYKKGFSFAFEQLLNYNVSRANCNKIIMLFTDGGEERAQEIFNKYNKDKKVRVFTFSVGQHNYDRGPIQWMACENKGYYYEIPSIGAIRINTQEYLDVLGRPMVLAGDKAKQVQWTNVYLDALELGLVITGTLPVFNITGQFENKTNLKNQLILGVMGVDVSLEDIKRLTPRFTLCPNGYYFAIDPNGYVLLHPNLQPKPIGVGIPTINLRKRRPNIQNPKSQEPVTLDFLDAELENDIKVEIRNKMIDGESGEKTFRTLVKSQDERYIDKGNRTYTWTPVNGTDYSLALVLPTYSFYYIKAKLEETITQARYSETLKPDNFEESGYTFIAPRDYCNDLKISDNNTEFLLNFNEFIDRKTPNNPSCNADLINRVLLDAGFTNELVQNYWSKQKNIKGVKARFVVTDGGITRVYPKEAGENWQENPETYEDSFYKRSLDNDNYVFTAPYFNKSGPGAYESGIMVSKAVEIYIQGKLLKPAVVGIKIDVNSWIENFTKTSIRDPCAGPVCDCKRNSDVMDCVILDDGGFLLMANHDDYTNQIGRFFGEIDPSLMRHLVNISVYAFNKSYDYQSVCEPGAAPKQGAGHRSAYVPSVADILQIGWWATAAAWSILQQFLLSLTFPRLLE
T1 sequence (P54289 957-1103): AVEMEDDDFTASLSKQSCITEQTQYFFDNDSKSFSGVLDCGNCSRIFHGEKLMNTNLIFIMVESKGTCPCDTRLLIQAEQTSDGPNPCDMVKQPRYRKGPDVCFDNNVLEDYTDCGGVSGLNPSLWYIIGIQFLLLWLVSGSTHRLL
T1 sequence (Q00975 whole entry): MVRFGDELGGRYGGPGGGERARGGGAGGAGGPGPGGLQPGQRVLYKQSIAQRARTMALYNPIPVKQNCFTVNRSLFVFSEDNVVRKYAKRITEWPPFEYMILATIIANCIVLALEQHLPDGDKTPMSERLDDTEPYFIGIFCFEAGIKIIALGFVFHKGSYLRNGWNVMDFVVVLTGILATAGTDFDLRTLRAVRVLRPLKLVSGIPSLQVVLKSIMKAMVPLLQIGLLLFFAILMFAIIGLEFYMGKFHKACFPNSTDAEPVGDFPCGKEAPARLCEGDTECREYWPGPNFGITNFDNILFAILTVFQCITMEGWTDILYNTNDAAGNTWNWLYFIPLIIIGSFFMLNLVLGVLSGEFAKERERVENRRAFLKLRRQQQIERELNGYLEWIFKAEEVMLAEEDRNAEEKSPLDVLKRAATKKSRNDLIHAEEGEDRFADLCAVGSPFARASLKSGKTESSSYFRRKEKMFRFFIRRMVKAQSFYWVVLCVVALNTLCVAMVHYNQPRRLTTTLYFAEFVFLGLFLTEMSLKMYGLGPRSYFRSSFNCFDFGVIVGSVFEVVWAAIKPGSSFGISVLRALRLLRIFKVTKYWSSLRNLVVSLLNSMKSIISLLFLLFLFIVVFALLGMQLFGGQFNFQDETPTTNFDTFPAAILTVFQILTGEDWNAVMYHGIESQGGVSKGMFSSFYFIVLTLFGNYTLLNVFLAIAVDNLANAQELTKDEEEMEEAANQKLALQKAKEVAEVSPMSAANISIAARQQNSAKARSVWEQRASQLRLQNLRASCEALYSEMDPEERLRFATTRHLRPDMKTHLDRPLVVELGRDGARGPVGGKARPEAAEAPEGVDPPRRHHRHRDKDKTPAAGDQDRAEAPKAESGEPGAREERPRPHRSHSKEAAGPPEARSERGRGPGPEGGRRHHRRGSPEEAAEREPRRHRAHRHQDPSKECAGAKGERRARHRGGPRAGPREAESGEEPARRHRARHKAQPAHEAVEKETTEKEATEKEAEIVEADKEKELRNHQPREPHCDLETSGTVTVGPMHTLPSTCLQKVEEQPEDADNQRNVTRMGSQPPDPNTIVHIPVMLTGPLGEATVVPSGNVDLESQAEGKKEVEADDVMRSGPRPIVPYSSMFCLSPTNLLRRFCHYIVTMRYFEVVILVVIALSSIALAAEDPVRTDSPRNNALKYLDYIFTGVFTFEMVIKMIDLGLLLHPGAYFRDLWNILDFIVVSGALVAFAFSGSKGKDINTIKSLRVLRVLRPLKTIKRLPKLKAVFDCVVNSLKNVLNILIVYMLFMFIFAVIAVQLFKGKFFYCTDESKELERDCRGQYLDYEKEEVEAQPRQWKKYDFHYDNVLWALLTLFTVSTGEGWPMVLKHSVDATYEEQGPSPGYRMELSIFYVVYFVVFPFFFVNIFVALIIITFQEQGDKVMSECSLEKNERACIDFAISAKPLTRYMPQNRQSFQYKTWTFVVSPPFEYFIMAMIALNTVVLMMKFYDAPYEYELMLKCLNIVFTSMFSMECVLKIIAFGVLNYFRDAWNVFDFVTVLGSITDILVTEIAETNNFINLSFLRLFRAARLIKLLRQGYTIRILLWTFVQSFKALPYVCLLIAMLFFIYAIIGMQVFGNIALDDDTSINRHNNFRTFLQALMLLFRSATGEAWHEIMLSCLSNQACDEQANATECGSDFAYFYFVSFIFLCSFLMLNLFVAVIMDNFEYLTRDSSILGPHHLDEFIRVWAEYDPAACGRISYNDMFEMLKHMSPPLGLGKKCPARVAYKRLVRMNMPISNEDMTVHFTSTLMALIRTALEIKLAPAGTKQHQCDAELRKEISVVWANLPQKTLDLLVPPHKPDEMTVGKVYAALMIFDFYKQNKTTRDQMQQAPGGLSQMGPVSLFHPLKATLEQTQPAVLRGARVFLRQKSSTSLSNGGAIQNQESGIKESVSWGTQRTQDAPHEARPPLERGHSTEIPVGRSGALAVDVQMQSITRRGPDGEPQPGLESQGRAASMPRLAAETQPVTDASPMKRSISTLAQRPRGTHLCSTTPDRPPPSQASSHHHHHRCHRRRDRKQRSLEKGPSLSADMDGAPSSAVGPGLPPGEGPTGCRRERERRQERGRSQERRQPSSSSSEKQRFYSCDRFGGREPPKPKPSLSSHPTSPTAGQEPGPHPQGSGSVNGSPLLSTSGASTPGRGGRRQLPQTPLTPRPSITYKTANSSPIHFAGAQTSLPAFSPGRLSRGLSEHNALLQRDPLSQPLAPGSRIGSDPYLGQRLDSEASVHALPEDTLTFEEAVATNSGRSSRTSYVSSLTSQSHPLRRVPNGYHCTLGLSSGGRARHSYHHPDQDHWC
T1 sequence (P54284 whole entry, further chain): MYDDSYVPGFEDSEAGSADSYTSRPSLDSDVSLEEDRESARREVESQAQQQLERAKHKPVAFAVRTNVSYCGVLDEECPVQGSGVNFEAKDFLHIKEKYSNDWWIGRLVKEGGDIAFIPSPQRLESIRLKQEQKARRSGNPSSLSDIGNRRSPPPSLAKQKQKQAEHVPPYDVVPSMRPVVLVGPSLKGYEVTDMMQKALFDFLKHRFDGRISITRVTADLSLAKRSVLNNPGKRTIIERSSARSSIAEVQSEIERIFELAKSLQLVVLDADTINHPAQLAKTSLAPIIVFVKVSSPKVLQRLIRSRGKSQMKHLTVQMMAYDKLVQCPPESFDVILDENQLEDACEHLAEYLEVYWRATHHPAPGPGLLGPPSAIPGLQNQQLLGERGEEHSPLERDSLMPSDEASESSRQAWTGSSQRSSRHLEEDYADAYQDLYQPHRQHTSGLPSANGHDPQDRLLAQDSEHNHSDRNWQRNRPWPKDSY

## CSCC[C@@H]1NC(=O)[C@H](Cc2ccc(O)cc2)NC(=O)[C@H](CCCNC(=N)N)NC(=O)[C@@H](NC(=O)[C@@H](N)CC(=O)O)CSSC[C@@H]2NC(=O)[C@@H]3CSSC[C@@H](C(=O)N[C@@H](C)C(=O)N[C@@H](Cc4c[nH]c5ccccc45)C(=O)N[C@@H](CC(=O)O)C(=O)N[C@@H](Cc4ccccc4)C(=O)N[C@H](C(=O)N[C@@H](Cc4ccccc4)C(=O)N[C@H](C(=O)O)[C@@H](C)O)[C@@H](C)O)NC(=O)[C@H](Cc4ccc(O)cc4)NC(=O)[C@H](CCCCN)NC(=O)[C@H](CCSC)NC(=O)[C@H](CCCCN)NC(=O)[C@H](CCCNC(=N)N)NC(=O)[C@H](CCCCN)NC(=O)[C@H](CSSC[C@H](NC(=O)[C@H](CC(=O)O)NC(=O)CNC(=O)[C@H](Cc4ccccc4)NC1=O)C(=O)N[C@@H](CCC(=O)O)C(=O)N[C@@H](CCCCN)C(=O)N[C@@H](CC(=O)O)C(=O)N[C@@H](CCC(=O)O)C(=O)N[C@@H](CC(=O)O)C(=O)N3)NC(=O)CNC(=O)[C@H](CC(C)C)NC(=O)[C@H](Cc1c[nH]cn1)NC(=O)[C@H](CCCCN)NC2=O [Pn3a, µ-Theraphotoxin-Pn3a]
hCav2.2
  Hill coefficient n H: 1.16 ± 0.07
  effect on depolarization-activated hCav2.2 current kinetics (in words): not altered
hCav2.2; HEK293, read-out: inhibition of human Cav2.2-mediated current
  inhibition at 10 µM: 71.8 ± 0.6%
[1]
  suppression of TTXs-I Na (in words): strongly suppress
hCav2.3
  effect on Cav2.3-mediated current (in words): no inhibition; also recorded: negligible effects; also recorded: minimally affected
hCav2.3; 10 µM
  inhibition of Cav2.3-mediated current: 2.2 ± 0.9%
[2]
  I Na remaining after application: ~50%
  reversibility on washout of TTXs-I Na inhibition: fully reversible upon washout
[3]
  I Na remaining after application: ~50%
  potency loss versus reported recombinant hNav1.7: ~250 fold
  reversibility on washout of TTXs-I Na inhibition: fully reversible upon washout
